Consider 8 molecules from patent publication US12168012B2, “NLRP3 inflammasome inhibitors” (Novartis AG, priority 2018, dated 2024).

pIC50: −log10 of the molar value. A value given as a limit tells only on which side of the number the result lay.

Holding throughout (format): cell-based
One assay has as its system THP-1 cells. Description: Readout of pyroptosis (PrestoBlue cell viability reagent) in the IL-1β secretion assay. Particulars: Homo sapiens; PMA-differentiated THP-1 cells, nigericin; values marked * in the IL-1β column. How it is done:
Monocytic THP-1 cells (ATCC: TIB-202) were maintained according to providers' instructions in RPMI media (RPMI/Hepes+10% fetal bovine serum+Sodium Pyruvate+0.05 mM Beta-mercaptoethanol (1000× stock)+Pen-Strep). Cells were differentiated in bulk with 0.5 μM phorbol 12-myristate 13-acetate (PMA; Sigma #P8139) for 3 hours, media was exchanged, and cells were plated at 50,000 cells per well in a 384-well flat-bottom cell culture plates (Greiner, #781986), and allowed to differentiate overnight. Compound in a 1:3.16 serial dilution series in DMSO was added 1:100 to the cells and incubated for 1 hour. The NLRP3 inflammasome was activated with the addition of 15 μM (final concentration) Nigericin (Enzo Life Sciences, #BML-CA421-0005), and cells were incubated for 3 hours. 10 μL supernatant was removed, and IL-1p levels were monitored using an HTRF assay (CisBio, #62IL1PEC) according to manufacturers' instructions. Viability and pyroptosis was monitored with the addition of PrestoBlue cell viability reagent (Life Technologies, #A13261) directly to the cell culture plate.

Assay [1] concerns NF-kB-dependent TNF-α secretion. Nature of the assay: TNF-α secretion assay (counterscreen). Particulars: Homo sapiens; THP-1 cells, Pam3CSK4-stimulated, 3 hours, HTRF. In short, it runs like this:
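Undifferentiated THP-1 cells, rested overnight, given compound then stimulated with 1 μg/mL LPS or 100 ng/mL Pam3CSK4 for 3 hours. Supernatant TNF-α measured by HTRF; IC50 from four-parameter logistic fit of % inhibition versus concentration, with viability monitored.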
Background: The purpose of a counterscreen is to sort out artefacts and off-target activity.

Another assay concerns NLRP3 inflammasome. Description: IL-1β secretion assay. Particulars: Homo sapiens, THP-1, 3 h, PMA-differentiated THP-1 cells, 15 μM nigericin, HTRF. In outline: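 PMA-differentiated THP-1 cells stimulated with nigericin to trigger NLRP3-dependent IL-1β secretion, measured by HTRF after 3 h. Viability/pyroptosis monitored with PrestoBlue. IC50 from logistic fit of % inhibition vs concentration with Hill coefficient.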
(TR-FRET usually uses a lanthanide donor and a delayed reading to cut background.)

Molecule `CC(C)(O)c1nn(CC(=O)Nc2cccc(NS(C)(=O)=O)c2)c(=O)c2cc3sc(Cl)cc3n12` [Ex 116, 2-(2-Chloro-5-(2-hydroxypropan-2-yl)-8-oxothieno[2′,3′:4,5]pyrrolo[1,2-d][1,2,4]triazin-7(8H)-yl)-N-(3-(methylsulfonamido)phenyl)acetamide] showed a pIC50 with THP-1 cells of 6.40.
Consider `CC(C)c1nn(CC(=O)N[C@H]2CCC[C@@H](NC(=O)OC(C)(C)C)C2)c(=O)c2cc3sc(Cl)cc3n12` [Ex 56, tert-Butyl ((1R,3S)-3-(2-(2-chloro-5-isopropyl-8-oxothieno[2′,3′:4,5]pyrrolo[1,2-d][1,2,4]triazin-7(8H)-yl)acetamido)cyclohexyl)carbamate], for which the pIC50 in the assay with THP-1 cells was < 6.48; in assay [1], < 4.00.
Turning to `CC(C)c1nn(CC(=O)Nc2nncs2)c(=O)c2cc3sc(Cl)cc3n12` [Ex 117, 2-(2-Chloro-5-isopropyl-8-oxothieno[2′,3′:4,5]pyrrolo[1,2-d][1,2,4]triazin-7(8H)-yl)-N-(1,3,4-thiadiazol-2-yl)acetamide], in the assay with THP-1 cells, the pIC50 was 5.22.
As to `CC(O)c1nn(CC(=O)N[C@@H]2CCCN(C)C2)c(=O)c2cc3sc(Cl)cc3n12` (stereo partly drawn) [Ex 44, 2-(2-Chloro-5-(1-hydroxyethyl)-8-oxothieno[2′,3′:4,5]pyrrolo[1,2-d][1,2,4]triazin-7(8H)-yl)-N-((R)-1-methylpiperidin-3-yl)acetamide], the pIC50 was < 4.00 in assay [1] and 6.95 in the assay on NLRP3 inflammasome.
In the case of `CC(O)c1nn(CC(=O)N[C@@H]2CCC[C@@](C)(O)C2)c(=O)c2cc3sc(Cl)cc3n12` (stereo partly drawn) [Ex 45, 2-(2-Chloro-5-(1-hydroxyethyl)-8-oxothieno[2′,3′:4,5]pyrrolo[1,2-d][1,2,4]triazin-7(8H)-yl)-N-((1R,3R)-3-hydroxy-3-methylcyclohexyl)acetamide], the pIC50 in assay [1] is < 4.00; in the assay with NLRP3 inflammasome, 6.61.
On to `CC(C)c1nn(CC(=O)N[C@@H]2CCC(=O)NC2)c(=O)c2cc3sc(Cl)cc3n12` [Ex 19, (R)-2-(2-Chloro-5-isopropyl-8-oxothieno[2′,3′:4,5]pyrrolo[1,2-d][1,2,4]triazin-7(8H)-yl)-N-(6-oxopiperidin-3-yl)acetamide], for which the values for the pIC50 (in assay [1]; in the assay with NLRP3 inflammasome) were < 4.00 and 7.31, respectively.
The like results for `CC(C)c1nn(CC(=O)N[C@@H]2CCCN(C3CC3)C2)c(=O)c2cc3sc(Cl)cc3n12` [Ex 124, (R)-2-(2-Chloro-5-isopropyl-8-oxothieno[2′,3′:4,5]pyrrolo[1,2-d][1,2,4]triazin-7(8H)-yl)-N-(1-cyclopropylpiperidin-3-yl)acetamide] were, in that order, < 4.00 and 9.05.
As for `CC(C)(O)c1nn(CC(=O)N[C@@H]2CCCNC2)c(=O)c2cc3sc(Cl)cc3n12` [Ex 79, (R)-2-(2-Chloro-5-(2-hydroxypropan-2-yl)-8-oxothieno[2′,3′:4,5]pyrrolo[1,2-d][1,2,4]triazin-7(8H)-yl)-N-(piperidin-3-yl)acetamide], the negative-log IC50 (pIC50) in assay [1] is < 4.00; in the assay on NLRP3 inflammasome, 6.61.

As usually defined, the pIC50 is the negative decadic logarithm of the IC50, by convention in mol/L.
